Source: the kinase profiling compilation of Christmann-Franck et al. (2016)

How the values were obtained:
Assay in all cases: radiometric filter-binding kinase assay, Kinase HotSpot
Conditions in all cases: compound 0.5 µM; ATP 10 µM
ROS1 (human) = ROS1 (human) (UniProt P08922)
CSNK1G1 (human) = CSNK1G1 (human) (UniProt Q9HCP0)
GRK7 (human) = GRK7 (human) (UniProt Q8WTQ7)
BRSK2 (human) = BRSK2 (human) (UniProt Q8IWQ3)
CDK5 CDK5R1 p25 (human) = CDK5 CDK5R1 p25 (human) (UniProt Q00535+Q15078)
TYRO3 (human) = TYRO3 (human) (UniProt Q06418)
EPHA1 (human) = EPHA1 (human) (UniProt P21709)
PTK2 (human) = PTK2 (human) (UniProt Q05397)
WNK2 (human) = WNK2 (human) (UniProt Q9Y3S1)
WNK2 (human), sequence (Q9Y3S1 whole entry, looked up): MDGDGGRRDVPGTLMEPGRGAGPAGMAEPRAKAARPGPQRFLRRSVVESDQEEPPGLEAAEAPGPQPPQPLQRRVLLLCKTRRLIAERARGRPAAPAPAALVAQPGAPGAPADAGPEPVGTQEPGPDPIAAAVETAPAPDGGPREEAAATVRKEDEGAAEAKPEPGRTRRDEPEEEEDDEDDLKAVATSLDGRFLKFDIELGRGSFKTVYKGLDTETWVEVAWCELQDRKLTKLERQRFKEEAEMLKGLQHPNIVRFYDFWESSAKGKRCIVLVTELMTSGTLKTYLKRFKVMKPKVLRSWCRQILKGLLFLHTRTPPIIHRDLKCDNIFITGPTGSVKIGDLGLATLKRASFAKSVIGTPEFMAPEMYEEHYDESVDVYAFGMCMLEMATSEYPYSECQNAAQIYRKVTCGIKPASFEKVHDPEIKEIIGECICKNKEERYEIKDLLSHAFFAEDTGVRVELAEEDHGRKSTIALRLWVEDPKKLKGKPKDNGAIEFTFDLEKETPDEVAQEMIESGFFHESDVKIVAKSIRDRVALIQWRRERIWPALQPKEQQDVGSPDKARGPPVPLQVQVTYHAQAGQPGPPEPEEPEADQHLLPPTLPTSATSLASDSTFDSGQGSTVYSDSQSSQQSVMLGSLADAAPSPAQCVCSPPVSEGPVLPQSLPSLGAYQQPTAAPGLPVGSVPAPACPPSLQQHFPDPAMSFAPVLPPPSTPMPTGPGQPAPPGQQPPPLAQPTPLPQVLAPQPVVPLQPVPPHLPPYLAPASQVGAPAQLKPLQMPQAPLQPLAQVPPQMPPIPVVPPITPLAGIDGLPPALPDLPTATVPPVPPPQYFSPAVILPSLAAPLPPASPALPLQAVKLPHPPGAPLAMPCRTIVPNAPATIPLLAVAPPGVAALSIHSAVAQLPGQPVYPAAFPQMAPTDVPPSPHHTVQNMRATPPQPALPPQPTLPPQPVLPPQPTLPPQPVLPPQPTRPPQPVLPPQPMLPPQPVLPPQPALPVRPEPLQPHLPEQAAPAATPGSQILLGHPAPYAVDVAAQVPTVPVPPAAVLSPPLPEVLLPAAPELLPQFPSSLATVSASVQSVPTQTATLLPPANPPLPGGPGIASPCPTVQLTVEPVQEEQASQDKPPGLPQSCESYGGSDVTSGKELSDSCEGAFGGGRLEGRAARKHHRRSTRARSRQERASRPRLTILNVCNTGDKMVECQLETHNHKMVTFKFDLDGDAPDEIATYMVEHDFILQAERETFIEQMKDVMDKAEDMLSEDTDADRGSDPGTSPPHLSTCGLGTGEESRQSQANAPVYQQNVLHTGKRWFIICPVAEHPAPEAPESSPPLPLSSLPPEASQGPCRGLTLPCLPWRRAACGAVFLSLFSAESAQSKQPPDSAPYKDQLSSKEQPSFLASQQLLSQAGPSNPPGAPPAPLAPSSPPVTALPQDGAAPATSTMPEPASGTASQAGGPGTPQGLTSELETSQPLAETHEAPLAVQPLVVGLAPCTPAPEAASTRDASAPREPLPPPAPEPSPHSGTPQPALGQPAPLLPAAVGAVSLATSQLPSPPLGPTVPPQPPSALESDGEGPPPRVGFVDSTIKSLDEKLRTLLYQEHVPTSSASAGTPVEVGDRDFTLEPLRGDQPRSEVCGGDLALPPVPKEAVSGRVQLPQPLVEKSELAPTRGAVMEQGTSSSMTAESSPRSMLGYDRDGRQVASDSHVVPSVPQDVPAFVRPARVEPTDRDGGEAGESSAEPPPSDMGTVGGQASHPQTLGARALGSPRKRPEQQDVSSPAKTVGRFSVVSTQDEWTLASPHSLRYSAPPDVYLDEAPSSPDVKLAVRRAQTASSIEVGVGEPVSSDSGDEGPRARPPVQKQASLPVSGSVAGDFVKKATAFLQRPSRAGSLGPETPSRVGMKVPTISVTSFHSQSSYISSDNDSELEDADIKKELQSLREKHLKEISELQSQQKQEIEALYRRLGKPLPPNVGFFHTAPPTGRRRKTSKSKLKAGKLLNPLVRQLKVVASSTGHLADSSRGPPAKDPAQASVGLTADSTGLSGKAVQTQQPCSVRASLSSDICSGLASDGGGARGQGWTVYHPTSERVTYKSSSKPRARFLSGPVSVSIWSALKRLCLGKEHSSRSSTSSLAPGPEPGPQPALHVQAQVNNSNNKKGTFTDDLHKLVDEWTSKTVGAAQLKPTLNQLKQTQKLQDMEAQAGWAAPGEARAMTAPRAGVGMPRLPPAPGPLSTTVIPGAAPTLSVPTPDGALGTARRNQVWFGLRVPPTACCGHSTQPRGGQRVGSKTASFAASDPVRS

ADRBK2 (human) = ADRBK2 (human) (UniProt P35626)
NEK2 (human) = NEK2 (human) (UniProt P51955)
MAPK9 (human) = MAPK9 (human) (UniProt P45984)
NEK7 (human) = NEK7 (human) (UniProt Q8TDX7)
NEK7 (human), sequence (Q8TDX7 whole entry, looked up): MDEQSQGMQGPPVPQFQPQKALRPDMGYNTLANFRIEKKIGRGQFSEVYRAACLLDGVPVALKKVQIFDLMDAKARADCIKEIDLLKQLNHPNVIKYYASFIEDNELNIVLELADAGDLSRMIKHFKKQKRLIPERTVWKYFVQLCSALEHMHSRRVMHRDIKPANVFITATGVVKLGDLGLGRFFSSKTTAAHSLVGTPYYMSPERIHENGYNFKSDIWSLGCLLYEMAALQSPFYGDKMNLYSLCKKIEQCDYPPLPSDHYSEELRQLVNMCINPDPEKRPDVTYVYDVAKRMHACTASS

[1] = tested on: MAP2K6 (human), P52564 [S207E/T211E]
LTK (human) = LTK (human) (UniProt P29376)
PRKCI (human) = PRKCI (human) (UniProt P41743)
CLK1 (human) = CLK1 (human) (UniProt P49759)
CDK6 CCND1 (human) = CDK6 CCND1 (human) (UniProt Q00534+P24385)
CDK6 CCND1 (human), sequence (P24385 whole entry, looked up): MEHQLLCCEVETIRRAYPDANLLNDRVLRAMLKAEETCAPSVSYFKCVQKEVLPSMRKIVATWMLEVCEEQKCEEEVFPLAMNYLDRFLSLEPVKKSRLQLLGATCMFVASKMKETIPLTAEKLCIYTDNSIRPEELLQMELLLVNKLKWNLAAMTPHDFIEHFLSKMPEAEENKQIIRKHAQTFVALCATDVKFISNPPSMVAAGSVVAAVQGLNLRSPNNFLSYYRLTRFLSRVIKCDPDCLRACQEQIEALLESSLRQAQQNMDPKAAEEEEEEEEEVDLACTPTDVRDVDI
CDK6 CCND1 (human), sequence (Q00534 whole entry, looked up): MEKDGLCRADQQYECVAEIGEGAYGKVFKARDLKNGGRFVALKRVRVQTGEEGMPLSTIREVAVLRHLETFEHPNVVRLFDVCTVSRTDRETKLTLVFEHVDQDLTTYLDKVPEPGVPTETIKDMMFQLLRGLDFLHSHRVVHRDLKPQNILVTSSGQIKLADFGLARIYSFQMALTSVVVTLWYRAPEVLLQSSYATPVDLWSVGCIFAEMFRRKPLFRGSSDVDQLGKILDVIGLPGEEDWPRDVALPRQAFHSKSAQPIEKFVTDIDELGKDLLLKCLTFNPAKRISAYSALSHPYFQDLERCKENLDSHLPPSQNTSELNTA

TEC (human) = TEC (human) (UniProt P42680)
TEC (human), sequence (P42680 whole entry, looked up): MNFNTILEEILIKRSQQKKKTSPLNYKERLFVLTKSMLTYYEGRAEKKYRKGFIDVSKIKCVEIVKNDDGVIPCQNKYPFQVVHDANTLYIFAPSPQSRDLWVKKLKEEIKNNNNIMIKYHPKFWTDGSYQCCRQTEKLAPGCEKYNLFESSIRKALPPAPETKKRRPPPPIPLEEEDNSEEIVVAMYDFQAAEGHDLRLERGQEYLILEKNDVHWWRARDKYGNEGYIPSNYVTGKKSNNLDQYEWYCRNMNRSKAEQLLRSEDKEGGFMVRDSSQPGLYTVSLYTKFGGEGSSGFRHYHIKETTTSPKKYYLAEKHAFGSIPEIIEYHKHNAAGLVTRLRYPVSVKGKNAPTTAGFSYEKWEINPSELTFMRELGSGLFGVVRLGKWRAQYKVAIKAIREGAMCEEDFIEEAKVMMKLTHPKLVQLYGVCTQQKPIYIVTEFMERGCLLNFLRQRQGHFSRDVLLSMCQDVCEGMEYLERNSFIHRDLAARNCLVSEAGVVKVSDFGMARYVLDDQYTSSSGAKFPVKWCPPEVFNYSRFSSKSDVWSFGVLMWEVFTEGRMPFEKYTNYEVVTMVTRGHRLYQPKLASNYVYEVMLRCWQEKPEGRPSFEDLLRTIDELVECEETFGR

PIM1 (human) = PIM1 (human) (UniProt P11309)
[2] = tested on: FLT4 (human), P35916 [Q890H]
RAF1 (human) = RAF1 (human) (UniProt P04049)
MAP3K5 (human) = MAP3K5 (human) (UniProt Q99683)
PDPK1 (human) = PDPK1 (human) (UniProt O15530)
EPHA4 (human) = EPHA4 (human) (UniProt P54764)
MELK (human) = MELK (human) (UniProt Q14680)
ROCK2 (human) = ROCK2 (human) (UniProt O75116)
FYN (human) = FYN (human) (UniProt P06241)
CHEK2 (human) = CHEK2 (human) (UniProt O96017)
CHEK2 (human), sequence (O96017 whole entry, looked up): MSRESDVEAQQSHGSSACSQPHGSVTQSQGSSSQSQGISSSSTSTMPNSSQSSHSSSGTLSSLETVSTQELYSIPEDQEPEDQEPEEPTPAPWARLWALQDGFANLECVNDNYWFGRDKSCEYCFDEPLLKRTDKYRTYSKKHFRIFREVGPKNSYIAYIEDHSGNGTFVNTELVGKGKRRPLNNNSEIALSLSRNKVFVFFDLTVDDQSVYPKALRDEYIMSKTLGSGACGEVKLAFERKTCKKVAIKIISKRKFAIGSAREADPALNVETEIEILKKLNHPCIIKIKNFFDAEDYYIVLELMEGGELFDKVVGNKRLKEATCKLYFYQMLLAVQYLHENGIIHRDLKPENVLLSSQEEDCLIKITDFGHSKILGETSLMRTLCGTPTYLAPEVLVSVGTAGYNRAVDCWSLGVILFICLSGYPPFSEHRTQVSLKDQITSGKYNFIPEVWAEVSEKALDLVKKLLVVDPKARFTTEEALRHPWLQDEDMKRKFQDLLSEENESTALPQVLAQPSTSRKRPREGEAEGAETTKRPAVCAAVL

MINK1 (human) = MINK1 (human) (UniProt Q8N4C8)
CDK2 CCNE1 (human) = CDK2 CCNE1 (human) (UniProt P24941+P24864)
RPS6KB2 (human) = RPS6KB2 (human) (UniProt Q9UBS0)
RPS6KB2 (human), sequence (Q9UBS0 whole entry, looked up): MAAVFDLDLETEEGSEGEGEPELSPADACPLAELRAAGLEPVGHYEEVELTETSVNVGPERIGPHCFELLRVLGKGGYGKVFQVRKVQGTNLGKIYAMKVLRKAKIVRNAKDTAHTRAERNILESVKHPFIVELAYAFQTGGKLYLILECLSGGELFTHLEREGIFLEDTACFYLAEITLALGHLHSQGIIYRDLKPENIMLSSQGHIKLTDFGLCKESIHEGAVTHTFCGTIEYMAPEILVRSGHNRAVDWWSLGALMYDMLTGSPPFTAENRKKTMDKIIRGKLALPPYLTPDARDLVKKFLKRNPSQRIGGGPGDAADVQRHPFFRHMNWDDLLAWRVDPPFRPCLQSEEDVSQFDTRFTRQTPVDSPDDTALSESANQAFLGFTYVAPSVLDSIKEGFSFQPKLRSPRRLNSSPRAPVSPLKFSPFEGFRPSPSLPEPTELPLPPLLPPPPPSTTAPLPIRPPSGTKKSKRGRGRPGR

MAPK11 (human) = MAPK11 (human) (UniProt Q15759)
STK39 (human) = STK39 (human) (UniProt Q9UEW8)
MARK3 (human) = MARK3 (human) (UniProt P27448)
ADRBK1 (human) = ADRBK1 (human) (UniProt P25098)
PTK2B (human) = PTK2B (human) (UniProt Q14289)
CDK1 CCNA2 (human) = CDK1 CCNA2 (human) (UniProt P06493+P20248)
PNCK (human) = PNCK (human) (UniProt Q6P2M8)
LRRK2 (human) = LRRK2 (human) (UniProt Q5S007)
MARK4 (human) = MARK4 (human) (UniProt Q96L34)
TBK1 (human) = TBK1 (human) (UniProt Q9UHD2)

## O=C1NC(=O)c2c1c1c3ccccc3[nH]c1n1cncc21
ROS1 (human)
  residual activity: 77%
CSNK1G1 (human)
  residual activity: 68.4%
GRK7 (human)
  residual activity: 96.2%
BRSK2 (human)
  residual activity: 29.7%
CDK5 CDK5R1 p25 (human)
  residual activity: 89.4%
TYRO3 (human)
  residual activity: 88.8%
EPHA1 (human)
  residual activity: 72.4%
PTK2 (human)
  residual activity: 56.9%
WNK2 (human)
  residual activity: 86.6%
ADRBK2 (human)
  residual activity: 109%
NEK2 (human)
  residual activity: 87.5%
MAPK9 (human)
  residual activity: 65.3%
NEK7 (human)
  residual activity: 80.3%
[1]
  residual activity: 65.7%
LTK (human)
  residual activity: 80.8%
PRKCI (human)
  residual activity: 82.3%
CLK1 (human)
  residual activity: 84%
CDK6 CCND1 (human)
  residual activity: 65.7%
TEC (human)
  residual activity: 96.7%
PIM1 (human)
  residual activity: 1.43%
[2]
  residual activity: 56.6%
RAF1 (human)
  residual activity: 108%
MAP3K5 (human)
  residual activity: 97.8%
PDPK1 (human)
  residual activity: 89%
EPHA4 (human)
  residual activity: 98.6%
MELK (human)
  residual activity: 32.6%
ROCK2 (human)
  residual activity: 93.2%
FYN (human)
  residual activity: 97.7%
CHEK2 (human)
  residual activity: 21.2%
MINK1 (human)
  residual activity: 48.2%
CDK2 CCNE1 (human)
  residual activity: 66.5%
RPS6KB2 (human)
  residual activity: 74.7%
MAPK11 (human)
  residual activity: 94.5%
STK39 (human)
  residual activity: 104%
MARK3 (human)
  residual activity: 29.8%
ADRBK1 (human)
  residual activity: 107%
PTK2B (human)
  residual activity: 70.1%
CDK1 CCNA2 (human)
  residual activity: 94.8%
PNCK (human)
  residual activity: 105%
LRRK2 (human)
  residual activity: 61.3%
MARK4 (human)
  residual activity: 26.8%
TBK1 (human)
  residual activity: 81.9%

## COc1cc2ncnc(Nc3ccc(Oc4ccccc4)cc3)c2cc1OC
ROS1 (human)
  residual activity: 95.3%
CSNK1G1 (human)
  residual activity: 90%
GRK7 (human)
  residual activity: 103%
BRSK2 (human)
  residual activity: 101%
CDK5 CDK5R1 p25 (human)
  residual activity: 88.8%
TYRO3 (human)
  residual activity: 83.4%
EPHA1 (human)
  residual activity: 95.6%
PTK2 (human)
  residual activity: 98.1%
WNK2 (human)
  residual activity: 88.1%
ADRBK2 (human)
  residual activity: 91.8%
NEK2 (human)
  residual activity: 111%
MAPK9 (human)
  residual activity: 99%
NEK7 (human)
  residual activity: 103%
[1]
  residual activity: 102%
LTK (human)
  residual activity: 98.3%
PRKCI (human)
  residual activity: 108%
CLK1 (human)
  residual activity: 100%
CDK6 CCND1 (human)
  residual activity: 95.1%
TEC (human)
  residual activity: 43.3%
PIM1 (human)
  residual activity: 102%
[2]
  residual activity: 62.5%
RAF1 (human)
  residual activity: 88.9%
MAP3K5 (human)
  residual activity: 107%
PDPK1 (human)
  residual activity: 111%
EPHA4 (human)
  residual activity: 106%
MELK (human)
  residual activity: 101%
ROCK2 (human)
  residual activity: 99.3%
FYN (human)
  residual activity: 26.9%
CHEK2 (human)
  residual activity: 29.6%
MINK1 (human)
  residual activity: 101%
CDK2 CCNE1 (human)
  residual activity: 87.8%
RPS6KB2 (human)
  residual activity: 97.4%
MAPK11 (human)
  residual activity: 105%
STK39 (human)
  residual activity: 102%
MARK3 (human)
  residual activity: 108%
ADRBK1 (human)
  residual activity: 101%
PTK2B (human)
  residual activity: 89%
CDK1 CCNA2 (human)
  residual activity: 92.2%
PNCK (human)
  residual activity: 97.7%
LRRK2 (human)
  residual activity: 65.3%
MARK4 (human)
  residual activity: 105%
TBK1 (human)
  residual activity: 93.7%
